Results from the supplement of paper PMC8253809.

Assays:
[1] = test system: SUDIPGXIX (diffuse intrinsic pontine glioma line); assay: maximal growth inhibition (yFin) relative to DMSO / staurosporine; higher = more efficacious
How it was run: (§1)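 Patient-derived pHGG/DIPG cell lines and astrocyte controls were plated in 384-well plates coated with 1% Geltrex and dosed by pin tool with a 10-point threefold dilution series (mean top concentration 35 μM), in triplicate. Cells were exposed for 7 days (3 days for iAstro) at 37 °C and 5% CO2. CellTiter-Glo luminescence was log2-transformed, normalised per plate to % activity between negative (solvent) and positive control wells, and pooled. EC50 and maximal response (yFin) were taken from whichever three- or four-parameter log-logistic fit had the lowest AICc.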

[2] = test system: DIPGX7 (H3.3 K27M diffuse intrinsic pontine glioma line); assay: as above
How it was run: as §1

[3] = test system: DIPGX9 (diffuse intrinsic pontine glioma line); assay: as above
How it was run: as §1

[4] = test system: HGGX39 (paediatric high-grade glioma line); assay: as above
How it was run: as §1

[5] = test system: SUDIPGXXI (diffuse intrinsic pontine glioma line); assay: as above
How it was run: as §1

[6] = test system: iAstro (astrocyte control); assay: as above
How it was run: as §1

[7] = test system: SUDIPGXIX; assay: EC50 (inflection of fitted growth-inhibition curve) (log10 M)
How it was run: as §1

[8] = test system: DIPGX7; assay: as above
How it was run: as §1

[9] = test system: DIPGX9; assay: as above
How it was run: as §1

[10] = test system: HGGX39; assay: as above
How it was run: as §1

[11] = test system: SUDIPGXXI; assay: as above
How it was run: as §1

[12] = test system: iAstro; assay: as above
How it was run: as §1

[13] = test system: SUDIPGIV (diffuse intrinsic pontine glioma line); assay: area under dose-response curve of % growth inhibition (log2 RLU vs DMSO / staurosporine), 1e-11 to 1e-4 M (% x log10 M); higher = more growth inhibition
How it was run: (§2)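 Patient-derived pHGG/DIPG cell lines and astrocyte controls were grown on 1% Geltrex-coated 384-well plates and exposed to a 10-point threefold dilution series (mean top concentration 35 μM), in triplicate. Exposure was 7 days (iAstro 3 days) at 37 °C, 5% CO2. CellTiter-Glo luminescence was log2-transformed and normalised per plate to % activity between solvent and positive controls. Area under the curve was taken by trapezoid rule from the fitted log-logistic curve, or from a smoothing spline when the sigmoid fit failed.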

[14] = test system: SUDIPGVI (diffuse intrinsic pontine glioma line); assay: as above
How it was run: as §2

[15] = test system: SUDIPGXIII (diffuse intrinsic pontine glioma line); assay: as above
How it was run: as §2

[16] = test system: SUDIPGXIX; assay: as above
How it was run: as §2

[17] = test system: DIPGX37 (H3.3 K27M diffuse intrinsic pontine glioma line); assay: as above
How it was run: as §2

[18] = test system: DIPGX7; assay: as above
How it was run: as §2

[19] = test system: DIPGX9; assay: as above
How it was run: as §2

[20] = test system: HABS (astrocyte control); assay: as above
How it was run: as §2

[21] = test system: SUDIPGXVII (diffuse intrinsic pontine glioma line); assay: as above
How it was run: as §2

[22] = test system: HGGX39; assay: as above
How it was run: as §2

[23] = test system: SUDIPGXXI; assay: as above
How it was run: as §2

[24] = test system: iAstro; assay: as above
How it was run: as §2

[25] = test system: HGGX6 (H3.3 G34R paediatric high-grade glioma line); assay: as above
How it was run: as §2

[26] = test system: DIPGX29 (H3.3 K27M diffuse intrinsic pontine glioma line); assay: as above
How it was run: as §2

[27] = test system: HGGX42 (H3.3 G34R paediatric high-grade glioma line); assay: as above
How it was run: as §2

[28] = test system: HGGX2 (paediatric high-grade glioma line); assay: maximal growth inhibition (yFin) relative to DMSO / staurosporine; higher = more efficacious
How it was run: as §1

[29] = test system: HABS; assay: as above
How it was run: as §1

[30] = test system: SUDIPGXVII; assay: as above
How it was run: as §1

[31] = test system: HGGX6; assay: as above
How it was run: as §1

[32] = test system: DIPGX29; assay: as above
How it was run: as §1

[33] = test system: HGGX42; assay: as above
How it was run: as §1

[34] = test system: HGGX2; assay: EC50 (inflection of fitted growth-inhibition curve) (log10 M)
How it was run: as §1

[35] = test system: HABS; assay: as above
How it was run: as §1

[36] = test system: SUDIPGXVII; assay: as above
How it was run: as §1

[37] = test system: HGGX6; assay: as above
How it was run: as §1

[38] = test system: DIPGX29; assay: as above
How it was run: as §1

[39] = test system: HGGX42; assay: as above
How it was run: as §1

[40] = test system: HGGX2; assay: area under dose-response curve of % growth inhibition (log2 RLU vs DMSO / staurosporine), 1e-11 to 1e-4 M (% x log10 M); higher = more growth inhibition
How it was run: as §2

[41] = test system: SUDIPGIV; assay: maximal growth inhibition (yFin) relative to DMSO / staurosporine; higher = more efficacious
How it was run: as §1

[42] = test system: SUDIPGIV; assay: EC50 (inflection of fitted growth-inhibition curve) (log10 M)
How it was run: as §1

SMILES	maximal growth inhibition [3]	maximal growth inhibition [5]	maximal growth inhibition [6]	EC50 (log10 M) [9]	EC50 (log10 M) [11]	EC50 (log10 M) [12]	area under dose-response curve [13]	area under dose-response curve [14]	area under dose-response curve [15]	area under dose-response curve [16]	area under dose-response curve [17]	area under dose-response curve [18]	area under dose-response curve [19]	area under dose-response curve [20]	area under dose-response curve [21]	area under dose-response curve [22]	area under dose-response curve [23]	area under dose-response curve [24]	area under dose-response curve [25]	area under dose-response curve [26]	other results
Cc1nc(Nc2ncc(C(=O)Nc3c(C)cccc3Cl)s2)cc(N2CCN(CCO)CC2)n1 [DASATINIB]	64.4%	110%	34.9%	-4.85	-4.85	-4.82	60.9	12	16.1	51.9	39.6	26.2	80	143	22	77.5	109	27.6	61.1	54.9	maximal growth inhibition [1]: 50.4%; maximal growth inhibition [2]: 28.2%; maximal growth inhibition [4]: 41.3%; EC50 (log10 M) [7]: -4.77; EC50 (log10 M) [8]: -4.59; EC50 (log10 M) [10]: -5.3; area under dose-response curve [27]: 83.4
C#Cc1cccc(Nc2ncnc3cc(OCCOC)c(OCCOC)cc23)c1 [ERLOTINIB]	53.6%	103%	27.5%	-5.14	-5.65	-5.17	53	33.8	9.16	78.6	51.3	44.7	68.4	86.4	44.5	34.2	178	29.7	22.9	28.1	maximal growth inhibition [1]: 62.6%; maximal growth inhibition [28]: 32.7%; maximal growth inhibition [29]: 80.2%; maximal growth inhibition [30]: 25.8%; maximal growth inhibition [4]: 40.4%; maximal growth inhibition [31]: 30.5%; maximal growth inhibition [32]: 25.7%; maximal growth inhibition [33]: 31.5%; EC50 (log10 M) [7]: -5.24; EC50 (log10 M) [34]: -5.13; EC50 (log10 M) [35]: -4.84; EC50 (log10 M) [36]: -5.32; EC50 (log10 M) [10]: -4.77; EC50 (log10 M) [37]: -4.65; EC50 (log10 M) [38]: -4.82; EC50 (log10 M) [39]: -5.09; area under dose-response curve [40]: 37.1; area under dose-response curve [27]: 50
CN1CCc2c(c3ccccc3n2Cc2ccc(C(=O)NO)cc2)C1 [TUBASTATIN A]	29.3%	99.5%	54%	-4.76	-4.83	-4.7	24.1	0	6.63	24.1	24.4	5.69	32.9	14.5	17.2	24.6	82.4	37.8	6.92	16.3	maximal growth inhibition [41]: 30.1%; EC50 (log10 M) [42]: -4.8; area under dose-response curve [40]: 21.2; area under dose-response curve [27]: 9.08
